# Laboratory results published in PubChem BioAssay AID1549 (Sanford-Burnham Center for Chemical Genomics, 2009).
# The source made the active and inactive calls. How the calls were made is not given here.
# Molecular target: Influenza A virus M2 proton channel (A/TW/4845/1999 H1N1)
# Test: M2 proton channel binding, NMR based, influenza A virus H1N1 strain (AID 1549)
# Settings: NMR binding screen, M2 protein
row,SMILES,Kd
1,C=C[C@](C)(O)CCC=C(C)C,> 4 mM (inactive)
2,Nc1nc2ncc(=O)[nH]c2c(=O)[nH]1,> 4 mM (inactive)
3,O=C1C2CC=CCC2C(=O)N1c1ccccc1 (stereo unspecified),> 4 mM (inactive)
4,C=C1C([C@]2(C)C(CC(=O)OC)[C@@](C)(COC(C)=O)OC(=O)C[C@@H]2OC(C)=O)[C@@H](OC=O)[C@H](OC(=O)C(OC(C)=O)C(C)CC)[C@@]2(C)[C@H](c3ccoc3)CC(=O)C12O (stereo partly specified),> 4 mM (inactive)
5,CC1CC[C@]2(NC1)O[C@H]1CC3C4CC[C@H]5C[C@@H](O)CC[C@]5(C)C4CC[C@]3(C)[C@H]1[C@@H]2C (stereo partly specified),> 4 mM (inactive)
6,Nc1cc(=O)[nH]c(=O)n1-c1ccccc1,> 4 mM (inactive)
7,Nc1ccc(Oc2ccccc2)nc1,> 4 mM (inactive)
8,O=C(CC1Nc2ccccc2NC1=O)Nc1ccc(O)cc1 (stereo unspecified),> 4 mM (inactive)
9,O=C(O)C1CCCCN1Cc1ccccc1 (stereo unspecified),> 4 mM (inactive)
10,OCC1Cc2ccccc2CN1 (stereo unspecified),> 4 mM (inactive)
11,CC(=O)Nc1ccc(NC(=O)N2CCOCC2)cc1,> 4 mM (inactive)
12,Nc1ccc2ncsc2c1,> 4 mM (inactive)
13,N[C@@H](C(=O)O)[C@@H](O)[C@H](O)[C@H](O)CO,> 4 mM (inactive)
14,Cc1ccc(OCC(=O)n2cnnc2N)c(C)c1,> 4 mM (inactive)
15,c1cnc(N2CCNCC2)nc1,> 4 mM (inactive)
16,CS(=O)(=O)N1CCN(C(=O)Cc2cccs2)CC1,> 4 mM (inactive)
17,O=C1NC(=O)C(Cc2cccs2)C(=O)N1,> 4 mM (inactive)
18,CCCCCCCCCCCCCc1ccco1,> 4 mM (inactive)
19,Cc1nnsc1-c1onc(C)c1C(=O)O,> 4 mM (inactive)
20,OCc1ccc(-n2cncn2)cc1,> 4 mM (inactive)
21,C=CC(C1=CC(=O)C(OC)=CC1=O)c1ccc(O)cc1 (stereo unspecified),> 4 mM (inactive)
22,CC(=O)Nc1nc(C)c(C(C)=O)s1,> 4 mM (inactive)
23,O=C(O[C@@H]1Cc2c(O)cc(O)cc2O[C@@H]1c1cc(O)c(=O)c2c(O)c(O)cc([C@H]3Oc4cc(O)cc(O)c4C[C@H]3OC(=O)c3cc(O)c(O)c(O)c3)c2c1)c1cc(O)c(O)c(O)c1,> 4 mM (inactive)
24,CC(=O)NN1C(=O)/C(=C\c2ccc(O)cc2)SC1=S,> 4 mM (inactive)
25,O=C(O)c1csc(-c2ccccc2)n1,> 4 mM (inactive)
26,c1ccc2c(c1)[nH]c1cnccc12,> 4 mM (inactive)

row,SMILES,Kd
1,CNC[C@@H](O)c1ccc(O)c(O)c1,> 4 mM (inactive)
2,O=C(O)CCCCCCCCCCCCC1C=CCC1 (stereo unspecified),> 4 mM (inactive)
3,NC(=O)Cn1nc2c3c(cccc3c1=O)-c1ccccc1-2,> 4 mM (inactive)
4,CNC(=O)c1cc(C)c(-c2ccccc2)s1,> 4 mM (inactive)
5,CNC(=O)C1COc2ccccc2O1 (stereo unspecified),> 4 mM (inactive)
6,C[C@@H]1OC(O[C@H]2[C@H](OC(=O)[C@]34CCC(C)(C)CC3C3=CCC5[C@@]6(C)CC[C@H](OC7O[C@@H](C)[C@H](O[C@@H]8OC[C@@H](O)[C@H](O)[C@H]8O)[C@@H](O)[C@H]7O)C(C)(C)C6CC[C@@]5(C)[C@]3(C)CC4O)OC[C@H](O)[C@H]2O)[C@H](O)[C@H](O)[C@H]1O[C@@H]1O[C@H](CO)[C@@H](O)[C@H](O)[C@H]1O (stereo partly specified),> 4 mM (inactive)
7,O=C1NCC(=O)N2CCc3ccccc3C12 (stereo unspecified),> 4 mM (inactive)
8,NC(=O)C1(c2ccccc2)CCOCC1,> 4 mM (inactive)
9,Cc1cc(F)c(F)c(C(=O)NC2CC2)c1Cl,> 4 mM (inactive)
10,CS(=O)(=O)c1nncn1-c1ccccc1,> 4 mM (inactive)
11,Nc1cc(C(=O)O)ccc1N1CCCCCC1,> 4 mM (inactive)
12,O=C(Nc1ccon1)c1ccc(Br)o1,> 4 mM (inactive)
13,CC1CCC2(OC1)OC1CC3C4CC[C@H]5C[C@@H](O)CC[C@]5(C)C4CC(=O)[C@]3(C)C1C2C (stereo partly specified),> 4 mM (inactive)
14,O=c1[nH]cc(Nc2ccccc2)c(=O)[nH]1,> 4 mM (inactive)
15,c1cncc(C2CCCCN2)c1 (stereo unspecified),> 4 mM (inactive)
16,C#CCCCCCCCCCCCC(=O)CC(O)COC(C)=O (stereo unspecified),> 4 mM (inactive)
17,NC1=NC(=O)/C(=C/c2ccccc2[N+](=O)[O-])S1,> 4 mM (inactive)
18,NC(=O)Cn1cnc2ccccc21,> 4 mM (inactive)
19,O=c1c(O)c(-c2ccccc2)oc2ccc3occc3c12,> 4 mM (inactive)
20,CNC(=O)c1cc(S(=O)(=O)N(C)C)ccc1Cl,> 4 mM (inactive)
21,c1ccc2[nH]c(-c3cscn3)nc2c1,> 4 mM (inactive)
22,COc1ccccc1NC(=O)c1cc[n+]([O-])cc1,> 4 mM (inactive)
23,C[C@@H]1CC[C@@]2(NC1)O[C@H]1C[C@H]3C4CC=C5C[C@@H](O)CC[C@]5(C)C4CC[C@]3(C)C1[C@@H]2C (stereo partly specified),> 4 mM (inactive)
24,NC(=O)Cn1nc(-c2ccco2)ccc1=O,> 4 mM (inactive)
25,OC[C@H]1O[C@@H](Oc2ccc(O)cc2)[C@H](O)[C@@H](O)[C@@H]1O,> 4 mM (inactive)
26,O=C1CCCC2C3CC(CN12)[C@@H]1CCCCN1C3 (stereo partly specified),> 4 mM (inactive)

row,SMILES,Kd
1,CC(=O)NC(=S)Nc1ccc(N(C)C(C)=O)cc1,> 4 mM (inactive)
2,CC(=O)Nc1cc(O)cc(O)c1,> 4 mM (inactive)
3,CC(=O)NCS(=O)(=O)c1ccc(C)cc1,> 4 mM (inactive)
4,CC(=O)OC1CCC23C(=O)OC45CCC(C6=CC(=O)OC6)C4(C)CCC2C5CCC3(O)C1 (stereo unspecified),> 4 mM (inactive)
5,COc1ccc(/C=N/n2cn[nH]c2=S)cc1,> 4 mM (inactive)
6,Cc1cc(=O)n2[nH]cnc2n1,> 4 mM (inactive)
7,Cc1occc1C(=O)NC1CCN(C)CC1,> 4 mM (inactive)
8,Cc1cc(C)n(-c2nc(N)cc(=O)[nH]2)n1,> 4 mM (inactive)
9,O=C(O)CCc1c[nH]c2ccccc12,> 4 mM (inactive)
10,NC(=S)N1CCC(c2ccccc2)=N1,> 4 mM (inactive)
11,O=C1C2C3C=CC(C3)C2C(=O)N1CCO (stereo unspecified),> 4 mM (inactive)
12,c1ccc(Cc2nnc(-c3ccccc3)o2)cc1,> 4 mM (inactive)
13,Oc1ccc2c(c1)OCO2,> 4 mM (inactive)
14,COc1ccc2c(c1)[nH]c1c(C)nccc12,> 4 mM (inactive)
15,C[C@@H]1CC[C@@]2(OC1)OC1C(O)C3C4CC[C@H]5C[C@H](O[C@@H]6O[C@H](CO)[C@H](O[C@@H]7O[C@H](CO)[C@@H](O)[C@H](O[C@@H]8OC[C@@H](O)[C@H](O)[C@H]8O)[C@H]7O[C@@H]7O[C@H](CO)[C@H](O)[C@H](O[C@@H]8O[C@H](CO)[C@@H](O)[C@H](O)[C@H]8O)[C@H]7O)[C@H](O)[C@H]6O)[C@H](O)C[C@]5(C)C4CC[C@]3(C)C1[C@@H]2C (stereo partly specified),> 4 mM (inactive)
16,CS(=O)(=O)c1ccc2nc(N)sc2c1,> 4 mM (inactive)
17,O=C(CSc1nc2ccccc2[nH]1)N1CCCCC1,> 4 mM (inactive)
18,CNC(=O)C(=O)Nc1cccc(Cl)c1,> 4 mM (inactive)
19,C/C(=N\NC(N)=S)C(=O)O,> 4 mM (inactive)
20,CCC1=Nc2ccccc2-c2nnc(SC)nc2O1,> 4 mM (inactive)
21,O=C1N=c2ccccc2=C1c1sc(=S)[nH]c1O,> 4 mM (inactive)
22,CC(NC(=O)c1ccco1)c1ccc2c(c1)OCCO2 (stereo unspecified),> 4 mM (inactive)
23,CCOc1ccc2ccccc2c1C(=O)N1CCOCC1,> 4 mM (inactive)
24,O=C(O)c1csc2ccccc12,> 4 mM (inactive)
